This is an account of results in US6028077A, “Crambescidin compounds” (priority 1998, dated 2000).

Structures are written as SMILES. Where two headings read alike, the source gives them in different places.

For data set [1], the system named is L1210 murine leukemia cells. Briefly: Cytotoxicity (parallel assay) against L1210 murine leukemia cells. The class given is cell-based. The note with it: for inhibition at 0.1 µg/mL / inhibition at 0.25 µg/mL / inhibition at 0.5 µg/mL / inhibition at 1 µg/mL: Mus musculus; for inhibition at 0.1 µg/mL: L1210, 0.1 μg/mL; for inhibition at 0.25 µg/mL: L1210, 0.25 μg/mL; for inhibition at 0.5 µg/mL: L1210, 0.5 μg/mL; for inhibition at 1 µg/mL: L1210, 1.0 μg/mL; for cytotoxic activity compared with other compounds / activity relative to crambescidin 816 (1): L1210 cells. An excerpt:
However, crambescidins 674 (9) and 687 (10) without a spermidine derivative unit are less than 5 times as active than 1.
Cytotoxicities against L1210 Cells for Compounds 1, 6-12,

The test system of another data set is Rhodotorula glutinis. Briefly: Antimicrobial assay against Rhodotorula glutinis. The class given is cell-based.
Another data set concerns KB cells. The note with it: cited from earlier work.
The next data set has as its system L1210 cells. The note with it: cited from earlier work.
The next data set deals with Candida albicans. The note with it: cited from earlier work.
The next data set deals with HSV. The note with it: cited from earlier work.
The next data set deals with P388 cells. Conditions: cited from earlier work.
For data set [2] the following is noted: virus not named; cited from earlier work.
Another data set has as its system Ca^2+ channel. The note with it: cited from earlier work.
Data set [3] relates to Herpes simple-x, Type I virus (HSV-I). Conditions: cited from earlier work.
The mark [4] stands for this setting: times as active than 1, without a spermidine derivative unit.

As a reminder, the inhibition is the percentage by which the read-out fell short of the control. Low values mean a response near the control, high ones a response far below the control.

Consider `CCC1C=CCCC2(CC3CCC4C(C(=O)OCCCCCCCCCCCCCCCC(=O)OC)C5(CCCC(C)O5)NC(=N2)N34)O1` (centres unmarked) [Methyl 11], for which, in [1], the inhibition at 0.1 µg/mL is 0%, testing at 0.25 µg/mL gave an inhibition of 0%, the inhibition at 0.5 µg/mL was found to be 0% and the inhibition at 1 µg/mL was determined as 0%.
As to `CCC1C=CCCC2(CC3CCC4C(C(=O)OCCCCCCCCCCCCCCCC(=O)O)C5(CCCC(C)O5)NC(=N2)N34)O1` (centres unmarked) [Compound 12, 13,14,15-Isocrambescidin 657], the “Inhibition (%)” value in data set [1] (0.1 μg/mL) turned out to be 0%; in [1] (0.25 μg/mL), 0%; in data set [1] (0.5 μg/mL) it was 0%; in data set [1] (1.0 μg/mL), 100%. Also, the “inhibition at 5 μg/mL” value in [1] (5 μg/mL) is recorded as “no inhibition”. In data set [1] (listed as 13, 14, 15-Isocrambescidin 657 (12)), the “cytotoxic activity compared with other compounds” value is “substantially less active”.
In the case of `CCC1C=CCCC2(CC3CCC4C(C(=O)OCCCCCCCCCCCCCCCC(=O)N(CCCN)CCCCN)C5(CCCC(C)O5)NC(=N2)N34)O1` (centres unmarked) [Compound 6, ptilomycalin A], in the data set on Rhodotorula glutinis, the “antimicrobial activity at 2 μg/well” value is given as “active”. In the data set on KB cells, the “cytotoxicity, KB cells” value is “shown cytotoxicity”. Besides, the “growth inhibition / cytotoxicity, L1210 cells” value in the data set with L1210 cells is on record as “shown cytotoxicity”. Also, in the data set with Candida albicans, the “antifungal activity against Candida albicans” value is reported as “antifungal activity”. Besides, the “antiviral activity (HSV)” value with HSV is recorded as “antiviral activity (HSV)”. In addition, the “cytotoxicity, P388 cells” value with P388 cells was “shown cytotoxicity”. In addition, in data set [1], the “cytotoxic activity compared with other compounds” value is listed as “slightly more active than 1”, the inhibition at 0.1 µg/mL is 20%, 0.25 µg/mL produced 60% inhibition and the inhibition at 0.5 µg/mL worked out at 99%. In data set [1], this molecule displayed an inhibition at 1 µg/mL of 100%.
`CCC1C=CCCC2(CC3CCC4(O)C(C(=O)OCCCCCCCCCCCCCCCC(=O)O)C5(CCCC(C)O5)NC(=N2)N34)O1` (centres unmarked) [Compound 9, Crambescidin 673]: in data set [1] (setting [4]), the “activity relative to crambescidin 816 (1)” value is recorded as “less than 5 times”. Besides, in data set [1], the inhibition at 0.1 µg/mL was 0%, testing at 0.25 µg/mL gave an inhibition of 0%, the inhibition at 0.5 µg/mL stood at 0% and testing at 1 µg/mL gave an inhibition of 100%.
As for `CCC1C=CCCC2(CC3CCC4C(C(=O)OCCCCCCCCCCCCCCCC(=O)N(CCCN)CC(O)CCN)C5(CCCC(C)O5)NC(=N2)N34)O1` (centres unmarked) [Compound 5, 13, 14, 15-Isocrambescidin 800], in [2], the antiviral activity entry is reported as “no observed antiviral activity”. Further, in the data set on L1210 cells, the “growth inhibition / cytotoxicity, L1210 cells” value is on record as “substantially less cytotoxic”.
Take `CCC1C=CCCC2(CC3CCC4C(C(=O)OCCCCCCCCCCCCCCCC(=O)N(CCCN)CC(Cl)CCN)C5(CCCC(C)O5)NC(=N2)N34)O1` (centres unmarked) [Compound 8, Crambescidin 818]: the “activity relative to crambescidin 816 (1)” value in [1] (times more active than 1) was “about 5 times”. In data set [1], this molecule yielded an inhibition at 0.1 µg/mL of 90%, an inhibition at 0.25 µg/mL of 95%, an inhibition at 0.5 µg/mL of 95% and an inhibition at 1 µg/mL of 100%.
As to `CCC1C=CCCC2(CC3CCC4(O)C(C(=O)OCCCCCCCCCCCCCCCC(=O)OC)C5(CCCC(C)O5)NC(=N2)N34)O1` (centres unmarked) [Compound 10, Crambescidin 687], in [1] (setting [4]), the “activity relative to crambescidin 816 (1)” value is given as “less than 5 times”. In data set [1], this molecule registered an inhibition at 0.1 µg/mL of 0%, an inhibition at 0.25 µg/mL of 0%, an inhibition at 0.5 µg/mL of 0% and an inhibition at 1 µg/mL of 100%.
Take `CCC1C=CCCC2(CC3CCC4C(C(=O)OCCCCCCCCCCCCCCCC(=O)O)C5(CCCC(C)O5)NC(=N2)N34)O1` (centres unmarked) [Compound 11, Crambescidin 657]: the “Inhibition (%)” value in data set [1] (0.1 μg/mL) was determined as 93%. For the same molecule, in data set [1] (listed as crambescidin 657 (11)), the “cytotoxic activity compared with other compounds” value is “most cytotoxic compound in the test”. Moreover, 1 µg/mL produced 100% inhibition in data set [1].
In the case of `CCC1C=CCCC2(CC3CCC4(O)C(C(=O)OCCCCCCCCCCCCCCCC(=O)N(CCCN)CC(Cl)CCN)C5(CCCC(C)O5)NC(=N2)N34)O1` (centres unmarked) [Compound 7, Crambescidin 834], the “activity relative to crambescidin 816 (1)” value in [1] (times more active than 1) was “about 5 times”. In addition, in [1], at 0.1 µg/mL the inhibition was 90%, at 0.25 µg/mL the inhibition was 95%, the inhibition at 0.5 µg/mL turned out to be 95% and the inhibition at 1 µg/mL was 100%.
As to `CCC1C=CCCC2(CC3CCC4(O)C(C(=O)OCCCCCCCCCCCCCCCC(=O)N(CCCN)CC(O)CCN)C5(CCCC(C)O5)NC(=N2)N34)O1` (centres unmarked) [Compound 1, crambescidin 816, reference compound], the “Ca^2+ channel blocker” value in the data set on Ca^2+ channel is “potent calcium channel blocker”. The “Ca^2+ channel blocker” value with Ca^2+ channel (listed as crambescidin 816 (1)) is listed as “strong Ca^2+ channel blocker”. For the same molecule, the “antiviral activity against HSV-I” value in data set [3] is given as “exhibited antiviral activity”. In addition, in data set [1], the inhibition at 0.1 µg/mL is 0%, testing at 0.25 µg/mL gave an inhibition of 70%, at 0.5 µg/mL the inhibition was 97% and testing at 1 µg/mL gave an inhibition of 100%.
